Read-outs that look alike come from different tables or passages of the source.
Key:
Format in all cases: cell-based
[1] = biological target: T1, GLP-1R (Homo sapiens, UniProt P43220); assay: HitHunter cAMP assay (GLP-1R); settings: for Emax: read-out: (Emax) GLP-1R
In short: (§1)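 Luminescent readout of cAMP by enzyme-fragment immunocompetition gave agonist concentration-response data. Cells (10,000/well) sat in HBSS buffer containing IBMX 625 μM, HEPES 10 mM and BSA 0.2%, exposed to agonist for 30 min at room temperature.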

[2] = biological target: T2, GIP-R (Homo sapiens, UniProt P48546); assay: HitHunter cAMP assay (GIP-R); settings: for Emax: read-out: (Emax) GIP-R
T2 sequence (P48546 22-466): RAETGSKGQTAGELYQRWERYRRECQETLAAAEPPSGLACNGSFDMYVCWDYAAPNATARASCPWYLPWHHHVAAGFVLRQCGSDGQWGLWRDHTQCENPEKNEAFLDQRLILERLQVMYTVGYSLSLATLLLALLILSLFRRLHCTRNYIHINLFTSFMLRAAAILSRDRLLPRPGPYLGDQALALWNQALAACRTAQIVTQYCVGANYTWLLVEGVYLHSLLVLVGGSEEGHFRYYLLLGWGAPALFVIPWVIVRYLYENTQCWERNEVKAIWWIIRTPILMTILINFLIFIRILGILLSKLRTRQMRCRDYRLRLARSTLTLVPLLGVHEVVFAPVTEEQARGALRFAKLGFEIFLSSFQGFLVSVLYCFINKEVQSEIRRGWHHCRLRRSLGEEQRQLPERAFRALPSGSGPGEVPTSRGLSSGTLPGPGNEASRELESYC
In short: as §1

[3] = biological target: T1, GLP-1R; assay: PathHunter β-arrestin assay
In short: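 Overnight-plated cells; 0.2% BSA medium; agonist 22-pt 2× dilution series, duplicate; 90 min, 37 °C/5% CO2; detection reagent 3 h RT, dark; luminescence.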

[4] = Table 3, cAMP, read-out: EC50 GLP-1R/nM
[5] = Table 3A, cAMP, read-out: EC50 GLP-1R/nM
[6] = Table 3, cAMP, read-out: EC50 GIP-R/nM
[7] = Table 3A, cAMP, read-out: EC50 GIP-R/nM
[8] = PathHunter β-arrestin assay, read-out: β-arrestin activity EC50

T1 sequence (P43220 24-463): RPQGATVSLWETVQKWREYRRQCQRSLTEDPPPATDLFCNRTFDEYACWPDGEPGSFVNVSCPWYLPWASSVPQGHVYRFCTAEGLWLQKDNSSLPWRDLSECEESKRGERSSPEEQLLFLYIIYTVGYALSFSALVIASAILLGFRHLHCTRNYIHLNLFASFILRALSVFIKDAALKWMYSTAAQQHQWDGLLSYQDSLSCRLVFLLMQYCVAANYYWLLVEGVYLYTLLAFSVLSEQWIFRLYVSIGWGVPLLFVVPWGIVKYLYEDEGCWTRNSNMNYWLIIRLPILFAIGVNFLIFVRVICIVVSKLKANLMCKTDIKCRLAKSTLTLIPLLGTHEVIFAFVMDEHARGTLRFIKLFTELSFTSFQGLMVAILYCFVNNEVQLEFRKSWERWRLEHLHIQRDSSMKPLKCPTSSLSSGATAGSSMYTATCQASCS

SMILES	EC50 ([1]; EC50 GLP-1R/nM, Table 3, cAMP) [nM]	EC50 ([1]; EC50 GLP-1R/nM, Table 3A, cAMP) [nM]	Emax ([1]; Table 3, cAMP) [%]	Emax ([1]; Table 3A, cAMP) [%]	EC50 ([2]; EC50 GIP-R/nM, Table 3, cAMP) [nM]	EC50 ([2]; EC50 GIP-R/nM, Table 3A, cAMP) [nM]	Emax ([2]; Table 3, cAMP) [%]	Emax ([2]; Table 3A, cAMP) [%]	EC50 [3] [nM]	EC50 [1, 4] [nM]	EC50 [1, 5] [nM]	EC50 [2, 6] [nM]	EC50 [2, 7] [nM]	EC50 [3, 8] [nM]	EC50 [1] [nM]	Emax [1] [%]	EC50 ([1]; read-out: EC50 GLP-1R/nM, Table 3A, cAMP) [nM]	Emax [2] [%]
CC[C@H](C)[C@H](NC(=O)[C@H](CO)NC(=O)[C@H](Cc1ccc(O)cc1)NC(=O)[C@H](CC(=O)O)NC(=O)[C@H](CO)NC(=O)[C@@H](NC(=O)[C@H](Cc1ccccc1)NC(=O)[C@@H](NC(=O)CNC(=O)[C@H](CCC(=O)O)NC(=O)CCCC(=O)NCCN1C(=O)c2ccccc2C1=O)[C@@H](C)O)[C@@H](C)O)C(=O)N[C@@H](Cc1ccc(O)cc1)C(=O)N[C@@H](CC(C)C)C(=O)N[C@@H](CC(=O)O)C(=O)N[C@@H](CCCCN)C(=O)N[C@@H](CCC(N)=O)C(=O)N[C@@H](C)C(=O)N[C@@H](C)C(=O)NC(C)(C)C(=O)N[C@@H](CCC(=O)O)C(=O)N[C@@H](Cc1ccccc1)C(=O)N[C@H](C(=O)N[C@@H](CC(N)=O)C(=O)N[C@@H](Cc1c[nH]c2ccccc12)C(=O)N[C@@H](CC(C)C)C(=O)N[C@@H](CC(C)C)C(=O)N[C@@H](C)C(=O)NCC(=O)NCC(=O)N1CCC[C@H]1C(=O)N[C@@H](CO)C(=O)N[C@@H](CO)C(=O)NCC(=O)N[C@@H](C)C(=O)N1CCC[C@H]1C(=O)N1CCC[C@H]1C(=O)N1CCC[C@H]1C(=O)N[C@@H](CO)C(=O)N[C@@H](CCCCN)C(N)=O)C(C)C [Compound 188]	10 to 100	10 to 100	101	101	1 to 10	1 to 10	107	107	> 1000	–	–	–	–	–	–	–	–	–
CCCCCCCCCCCCCCCC(=O)N[C@@H](CCC(=O)NCCCC[C@H](NC(=O)[C@H](CO)NC(=O)[C@@H]1CCCN1C(=O)[C@@H]1CCCN1C(=O)[C@@H]1CCCN1C(=O)[C@H](C)NC(=O)CNC(=O)[C@H](CO)NC(=O)[C@H](CO)NC(=O)[C@@H]1CCCN1C(=O)CNC(=O)CNC(=O)[C@H](C)NC(=O)[C@H](CC(C)C)NC(=O)[C@H](CC(C)C)NC(=O)[C@H](Cc1c[nH]c2ccccc12)NC(=O)[C@H](CC(N)=O)NC(=O)[C@@H](NC(=O)[C@H](Cc1ccccc1)NC(=O)[C@H](CCC(=O)O)NC(=O)C(C)(C)NC(=O)[C@H](C)NC(=O)[C@H](C)NC(=O)[C@H](CCC(N)=O)NC(=O)[C@H](CCCCN)NC(=O)[C@H](CC(=O)O)NC(=O)[C@H](CC(C)C)NC(=O)[C@H](Cc1ccc(O)cc1)NC(=O)[C@@H](NC(=O)[C@H](CO)NC(=O)[C@H](Cc1ccc(O)cc1)NC(=O)[C@H](CC(=O)O)NC(=O)[C@H](CO)NC(=O)[C@@H](NC(=O)[C@H](Cc1ccccc1)NC(=O)[C@@H](NC(=O)CNC(=O)[C@H](CCC(=O)O)NC(=O)CSCC(=O)NCCN1CC(=O)N(C)CC1=O)[C@@H](C)O)[C@@H](C)O)[C@@H](C)CC)C(C)C)C(N)=O)C(=O)O [Compound 12]	–	–	91	91	–	–	85	85	–	1 to 10	1 to 10	0.1 to 1	0.1 to 1	> 1000	–	–	–	–
CC[C@H](C)[C@H](NC(=O)[C@H](CO)NC(=O)[C@H](Cc1ccc(O)cc1)NC(=O)[C@H](CC(=O)O)NC(=O)[C@H](CO)NC(=O)[C@@H](NC(=O)[C@H](Cc1ccccc1)NC(=O)[C@@H](NC(=O)CNC(=O)[C@H](CCC(=O)O)NC(=O)CCC(=O)NCCN1C(=O)CSC1=O)[C@@H](C)O)[C@@H](C)O)C(=O)N[C@@H](Cc1ccc(O)cc1)C(=O)N[C@@H](CC(C)C)C(=O)N[C@@H](CC(=O)O)C(=O)N[C@@H](CCCCN)C(=O)N[C@@H](CCC(N)=O)C(=O)N[C@@H](C)C(=O)N[C@@H](C)C(=O)NC(C)(C)C(=O)N[C@@H](CCC(=O)O)C(=O)N[C@@H](Cc1ccccc1)C(=O)N[C@H](C(=O)N[C@@H](CC(N)=O)C(=O)N[C@@H](Cc1c[nH]c2ccccc12)C(=O)N[C@@H](CC(C)C)C(=O)N[C@@H](CC(C)C)C(=O)N[C@@H](C)C(=O)NCC(=O)NCC(=O)N1CCC[C@H]1C(=O)N[C@@H](CO)C(=O)N[C@@H](CO)C(=O)NCC(=O)N[C@@H](C)C(=O)N1CCC[C@H]1C(=O)N1CCC[C@H]1C(=O)N1CCC[C@H]1C(=O)N[C@@H](CO)C(=O)N[C@@H](CCCCN)C(N)=O)C(C)C [Compound 192]	–	–	111	111	–	–	63	63	–	0.1 to 1	0.1 to 1	10 to 100	10 to 100	> 1000	–	–	–	–
CCCCCCCCCCCCCCCC(=O)N[C@@H](CCC(=O)NCCCC[C@H](NC(=O)[C@H](CO)NC(=O)[C@@H]1CCCN1C(=O)[C@@H]1CCCN1C(=O)[C@@H]1CCCN1C(=O)[C@H](C)NC(=O)CNC(=O)[C@H](CO)NC(=O)[C@H](CO)NC(=O)[C@@H]1CCCN1C(=O)CNC(=O)CNC(=O)[C@H](C)NC(=O)[C@H](CC(C)C)NC(=O)[C@H](CC(C)C)NC(=O)[C@H](Cc1c[nH]c2ccccc12)NC(=O)[C@H](CC(N)=O)NC(=O)[C@@H](NC(=O)[C@H](Cc1ccccc1)NC(=O)[C@H](CCC(=O)O)NC(=O)C(C)(C)NC(=O)[C@H](C)NC(=O)[C@H](C)NC(=O)[C@H](CCC(N)=O)NC(=O)[C@H](CCCCN)NC(=O)[C@H](CC(=O)O)NC(=O)[C@H](CC(C)C)NC(=O)[C@H](Cc1ccc(O)cc1)NC(=O)[C@@H](NC(=O)[C@H](CO)NC(=O)[C@H](Cc1ccc(O)cc1)NC(=O)[C@H](CC(=O)O)NC(=O)[C@H](CO)NC(=O)[C@@H](NC(=O)[C@H](Cc1ccccc1)NC(=O)[C@@H](NC(=O)CNC(=O)[C@H](CCC(=O)O)NC(=O)CN(C)C(=O)CCN1CCCCC1=O)[C@@H](C)O)[C@@H](C)O)[C@@H](C)CC)C(C)C)C(N)=O)C(=O)O [Compound 206]	–	–	–	–	–	–	–	18	–	–	< 0.1	–	100 to 1000	> 1000	–	–	–	–
CCCCCCCCCCCCCCCC(=O)N[C@@H](CCC(=O)NCCCC[C@H](NC(=O)[C@H](CO)NC(=O)[C@@H]1CCCN1C(=O)[C@@H]1CCCN1C(=O)[C@@H]1CCCN1C(=O)[C@H](C)NC(=O)CNC(=O)[C@H](CO)NC(=O)[C@H](CO)NC(=O)[C@@H]1CCCN1C(=O)CNC(=O)CNC(=O)[C@H](C)NC(=O)[C@H](CC(C)C)NC(=O)[C@H](CC(C)C)NC(=O)[C@H](Cc1c[nH]c2ccccc12)NC(=O)[C@H](CC(N)=O)NC(=O)[C@@H](NC(=O)[C@H](Cc1ccccc1)NC(=O)[C@H](CCC(=O)O)NC(=O)C(C)(C)NC(=O)[C@H](C)NC(=O)[C@H](C)NC(=O)[C@H](CCC(N)=O)NC(=O)[C@H](CCCCN)NC(=O)[C@H](CC(=O)O)NC(=O)[C@H](CC(C)C)NC(=O)[C@H](Cc1ccc(O)cc1)NC(=O)[C@@H](NC(=O)[C@H](CO)NC(=O)[C@H](Cc1ccc(O)cc1)NC(=O)[C@H](CC(=O)O)NC(=O)[C@H](CO)NC(=O)[C@@H](NC(=O)[C@H](Cc1ccccc1)NC(=O)[C@@H](NC(=O)CNC(=O)[C@H](CCC(=O)O)NC(=O)CCCCC(=O)NCCN1CCCCC1=O)[C@@H](C)O)[C@@H](C)O)[C@@H](C)CC)C(C)C)C(N)=O)C(=O)O [Compound 20]	–	–	–	–	1 to 10	10 to 100	–	–	> 1000	–	–	–	–	–	0.1 to 1	91	0.1 to 1	22

Source: patent US20260176320A1, “MODULATORS OF G-PROTEIN COUPLED RECEPTORS” (priority 2018, published 2026)
